This is an account of results in BindingDB's records for patent WO2025064535 (Deep Apple Therapeutics, 2025).

The target in this experiment is T1, Mas-related G-protein coupled receptor member X2 (Homo sapiens, UniProt Q96LB1).
T1 sequence (Q96LB1 whole entry): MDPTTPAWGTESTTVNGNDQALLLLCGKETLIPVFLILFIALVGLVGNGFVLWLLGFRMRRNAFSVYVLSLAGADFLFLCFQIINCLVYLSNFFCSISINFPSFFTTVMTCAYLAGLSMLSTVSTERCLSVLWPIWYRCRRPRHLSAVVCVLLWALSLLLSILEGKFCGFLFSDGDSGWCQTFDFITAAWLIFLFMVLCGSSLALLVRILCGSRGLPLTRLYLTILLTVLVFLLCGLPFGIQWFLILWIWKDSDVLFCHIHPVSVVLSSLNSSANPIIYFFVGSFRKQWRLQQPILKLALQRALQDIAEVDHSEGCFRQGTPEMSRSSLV
Briefly: MRGPRX2 Activity Assay. The protocol:
FlpIn TRex-MRGPRX2-HEK293 cells (herein TRex-MRPGRX2-HEK) stably transfected to express human MRGPRX2 were maintained at 37 °C with 5% CO2 and grown in DMEM supplemented with 10% FBS, 1% L-Glutamate, 1% penicillin/streptomycin, 100ug/mL Hygromycin B, and 15 µg/mL Blasticidin. GOI (MRGPRX2) expression was induced with 100ng/mL of Doxycycline 18-24 hours prior to experiment, in flask. On the day of experiment, cells were lifted with TripLE Express and seeded in 384-well white walled opaque bottomed, assay plates, at 8,000 cells per well in 5 µL freshly made assay buffer (HBSS, 20 mM HEPES, 0.1% BSA and 10 mM LiCl). Compounds solubilized in 100% DMSO at 30 mM were serially diluted (1:4) first in 100% DMSO, and an intermediate plate of assay buffer was used to establish a final top concentration of 30 µM (in assay plate). Final DMSO concentration was kept constant at 1% across assay plates. Cortistatin-14, at 30 mM stock concentration was solubilized in HBSS + 0.1% BSA, stored at -20°C in 5 µL aliquots and discarded after one freeze-thaw cycle. […] Antagonist equilibrium was established with 30 minutes preincubation, followed by no wash, direct addition, and stimulation of agonist for 1 hour at 37 °C / 5% CO2. IP-1 standards and HTRF detection reagents were added according to the IP-one Gq kit protocol purchased from CisBio (part number 62IPAPEJ). The plate was read on an EnVision XCite plate reader. The HTRF ratio was then calculated from raw data (channel1/channel2 ×10,000) and analyzed using either GraphPad Prism or a custom Python script to calculate IC50 using Log[Antagonist] vs. response (4 parameter) nonlinear regression.
One may read the IC50 as the concentration that gives 50% inhibition. Low readings indicate greater potency, high ones weaker potency. Consider `C[C@@H](C(=O)Nc1nc2cc3c(cc2s1)OC(F)(F)O3)N1CCO[C@@H](c2ccc(=O)[nH]c2)C1` [WO2025064535, Compound 3], for which the IC50 was 0.049 µM.
With `C[C@@H](C(=O)Nc1nc2cc3c(cc2s1)OC(F)(F)O3)N1CCO[C@H](c2ccc(=O)[nH]c2)C1` [WO2025064535, Compound 4] the figure was greater than 30 µM; with `C[C@@H](C(=O)Nc1nc2cc3c(cc2s1)OC(F)(F)O3)N1CCC[C@@H](CO)C1` [WO2025064535, Compound 7], 1.13 µM.
Turning to `C[C@@H](C(=O)Nc1cc2cc3c(cc2s1)OC(F)(F)O3)N1CCC(F)(F)[C@@H](c2c[nH]c(=O)c([C@H](N)C(F)(F)F)c2)C1` [WO2025064535, Compound 14], 12.8 µM corresponded to half-maximal inhibition (IC50).
With `C[C@@H](C(=O)Nc1nc2cc3c(cc2s1)CCC3)N1CCC(F)(F)CC1` [WO2025064535, Compound 18] the figure was 0.085 µM.
Under `C[C@@H](C(=O)Nc1nc2cc3c(cc2s1)OC(F)(F)O3)N1CCC(F)(F)[C@@H](c2c[nH]c(=O)c([C@H](N)C(F)F)c2)C1` [WO2025064535, Compound 21] stands 0.018 µM; under `C[C@@H](C(=O)Nc1nc2cc3c(cc2s1)OC(F)(F)O3)N1CCC(F)(F)[C@@H](c2c[nH]c(=O)c([C@@H](N)C(F)F)c2)C1` [WO2025064535, Compound 22], 0.017 µM.
With `C[C@@H](C(=O)Nc1nc2cc3c(cc2s1)OC(F)(F)O3)N1CCC(F)(F)[C@H](c2c[nH]c(=O)c([C@H](N)C(F)F)c2)C1` [WO2025064535, Compound 23] the figure was 9.01 µM; with `C[C@@H](C(=O)Nc1nc2cc3c(cc2s1)OC(F)(F)O3)N1CCC(F)(F)[C@H](c2c[nH]c(=O)c([C@@H](N)C(F)F)c2)C1` [WO2025064535, Compound 24], greater than 30 µM.
Consider `C[C@@H](C(=O)Nc1nc2cc3c(cc2s1)CCC3)N1CCC(F)(F)[C@@H](c2ccc(=O)[nH]c2)C1` [WO2025064535, Compound 27], for which half-maximal inhibition (IC50) was put at 0.292 µM.
With `C[C@@H](C(=O)Nc1nc2cc3c(cc2s1)OCCO3)N1CCC(F)(F)[C@H](c2ccc(=O)[nH]c2)C1` [WO2025064535, Compound 30] the figure was 1.07 µM; with `C[C@@H](C(=O)Nc1nc2cc3c(cc2s1)OC(F)(F)O3)N1CCC(F)(F)[C@@H](c2ccc(=O)[nH]c2)C1` [WO2025064535, Compound 31], greater than 30 µM.
Under `C[C@@H](C(=O)Nc1nc2cc3c(cc2s1)OC(F)(F)O3)N1CCC(F)(F)[C@H](c2c[nH]c(=O)cn2)C1` [WO2025064535, Compound 35] stands 1.02 µM; under `C[C@@H](C(=O)Nc1nc2cc3c(cc2s1)OC(F)(F)O3)N1CC[C@@H](F)[C@@H](c2cc[n+]([O-])cc2)C1` [WO2025064535, Compound 36], greater than 30 µM.
Regarding `C[C@@H](C(=O)Nc1nc2cc3c(cc2s1)OC(F)(F)O3)N1CC[C@@H](F)[C@H](c2cc[n+]([O-])cc2)C1` [WO2025064535, Compound 37], the IC50 is greater than 30 µM.
Compound `C[C@@H](C(=O)Nc1nc2cc3c(cc2s1)OC(F)(F)O3)N1CC[C@H](F)[C@H](c2cc[n+]([O-])cc2)C1` [WO2025064535, Compound 39] gave a concentration for half-maximal inhibition (IC50) of 0.223 µM.
Compound `C[C@@H](C(=O)Nc1nc2cc3c(cc2s1)OCCO3)N1CCC(F)(F)[C@@H](c2c[nH]c(=O)cn2)C1` [WO2025064535, Compound 40] yielded an IC50 of 0.77 µM.
Under `C[C@@H](C(=O)Nc1nc2cc3c(cc2s1)OC(F)(F)O3)N1CCC(F)(F)[C@@H](c2c[nH]c(=O)c([C@@H](O)CO)c2)C1` [WO2025064535, Compound 42] stands greater than 30 µM.
Under `C[C@@H](C(=O)Nc1nc2cc3c(cc2s1)OC(F)(F)O3)N1CCC(F)(F)[C@@H](c2c[nH]c(=O)c([C@H](O)CO)c2)C1` [WO2025064535, Compound 44] stands greater than 30 µM; under `C[C@@H](C(=O)Nc1nc2cc3c(cc2s1)OC(F)(F)O3)N1CCC(F)(F)[C@H](c2c[nH]c(=O)c([C@H](O)CO)c2)C1` [WO2025064535, Compound 45], 0.022 µM.
`C[C@@H](C(=O)Nc1nc2cc3c(cc2s1)OC(F)(F)O3)N1CCC[C@H](c2cc[n+]([O-])cc2)C1` [WO2025064535, Compound 50] showed an IC50 of 0.222 µM.
`C[C@@H](C(=O)Nc1nc2cc3c(cc2s1)OC(F)(F)O3)N1CCC(F)(F)[C@@H](c2cc[n+]([O-])c([C@@H](O)CO)c2)C1` [WO2025064535, Compound 51] registered an IC50 greater than 30 µM.
`C[C@@H](C(=O)Nc1nc2cc3c(cc2s1)OC(F)(F)O3)N1CCC(F)(F)[C@H](c2cc[n+]([O-])c([C@@H](O)CO)c2)C1` [WO2025064535, Compound 52]: the IC50 was greater than 30 µM.
With `C[C@@H](C(=O)Nc1nc2cc3c(cc2s1)OC(F)(F)O3)N1CCC(F)(F)[C@@H](c2cc[n+]([O-])c([C@H](O)CO)c2)C1` [WO2025064535, Compound 53], 0.03 µM corresponded to half-maximal inhibition (IC50).
With `C[C@@H](C(=O)Nc1nc2cc3c(cc2s1)OC(F)(F)O3)N1CCC(F)(F)[C@@H](n2ccc(=O)[nH]c2=O)C1` [WO2025064535, Compound 62] the figure was greater than 30 µM; with `C[C@@H](C(=O)Nc1nc2cc3c(cc2s1)OC(F)(F)O3)N1CCC(F)(F)[C@H](n2ccc(=O)[nH]c2=O)C1` [WO2025064535, Compound 63], 0.635 µM; with `C[C@@H](C(=O)Nc1nc2cc3c(cc2s1)OC(F)(F)O3)N1CCC(F)(F)[C@@H](c2cc[n+]([O-])c(CN)c2)C1` [WO2025064535, Compound 64], greater than 30 µM.
Regarding `C[C@@H](C(=O)Nc1nc2cc3c(cc2s1)OC(F)(F)O3)N1CCC(F)(F)[C@H](c2cc[n+]([O-])c(CN)c2)C1` [WO2025064535, Compound 65], the half-maximal inhibitory concentration (IC50) turned out to be 0.032 µM.
With `C[C@@H](C(=O)Nc1nc2cc3c(cc2s1)OC(F)(F)O3)N1CCC(F)(F)[C@@H](c2c[nH]c(=O)c(CN3CCOCC3)c2)C1` [WO2025064535, Compound 66] the figure was greater than 30 µM.
Turning to `C[C@@H](C(=O)Nc1nc2cc3c(cc2s1)OC(F)(F)O3)N1CCC(F)(F)[C@H](c2c[nH]c(=O)c(CN3CCOCC3)c2)C1` [WO2025064535, Compound 67], the IC50 was 0.303 µM.
In the case of `C[C@@H](C(=O)Nc1nc2cc3c(cc2s1)OC(F)(F)O3)N1CCC(F)(F)[C@@H](c2c[nH]c(=O)c(CN3CCC(F)(F)CC3)c2)C1` [WO2025064535, Compound 68], the half-maximal inhibitory concentration (IC50) is greater than 30 µM.
`C[C@@H](C(=O)Nc1nc2cc3c(cc2s1)OC(F)(F)O3)N1CCC(F)(F)[C@H](c2c[nH]c(=O)c(CN3CCC(F)(F)CC3)c2)C1` [WO2025064535, Compound 69] showed an IC50 of 0.169 µM.
With `C[C@@H](C(=O)Nc1nc2cc3c(cc2s1)OCO3)N1CCC(F)(F)[C@@H](c2cc[n+]([O-])cc2)C1` [WO2025064535, Compound 80] the figure was 0.196 µM; with `C[C@@H](C(=O)Nc1nc2cc3c(cc2s1)OC(F)(F)O3)N1CCC(F)(F)[C@@H](c2c[nH]c(=O)c(CN)c2)C1` [WO2025064535, Compound 82], 2.11 µM.
Take `C[C@H](C(=O)Nc1nc2cc3c(cc2s1)OC(F)(F)O3)N1CCC(F)(F)[C@H](c2c[nH]c(=O)c(CN)c2)C1` [WO2025064535, Compound 83]: the IC50 was greater than 30 µM.
Under `C[C@H](C(=O)Nc1nc2cc3c(cc2s1)OC(F)(F)O3)N1CCC(F)(F)[C@@H](c2c[nH]c(=O)c(CN)c2)C1` [WO2025064535, Compound 84] stands 1.16 µM; under `CNCc1cc([C@H]2CN([C@@H](C)C(=O)Nc3nc4cc5c(cc4s3)OC(F)(F)O5)CCC2(F)F)cc[n+]1[O-]` [WO2025064535, Compound 101], 3.43 µM; under `C[C@@H](C(=O)Nc1nc2cc3c(cc2s1)OC(F)(F)O3)N1CCC(F)(F)[C@@H](c2ncn[nH]2)C1` [WO2025064535, Compound 104], 0.031 µM.
In turn, `C[C@@H](C(=O)Nc1nc2cc3c(cc2s1)OC(F)(F)O3)N1CCC(F)(F)[C@H](c2ncn[nH]2)C1` [WO2025064535, Compound 105] had an IC50 of 0.509 µM.
The compound `C[C@@H](C(=O)Nc1nc2cc3c(cc2s1)CCC3)N1CCC(F)(F)[C@@H](c2c[nH]c(=O)c(CO)c2)C1` [WO2025064535, Compound 106] gave a half-maximal inhibitory concentration (IC50) greater than 30 µM.
